These results are taken from ChEMBL document CHEMBL1201862, “PubChem BioAssay data set” (2004).

Test systems include Malme-3M; SNB-75; EKVX; CAKI-1; HCT-15; NCI-H226; NCI-H460; HT-29; RXF 393; M14; SK-OV-3; SK-MEL-5; SW-620; SF-268; MDA-MB-435; OVCAR-5; SF-295; DU-145; RPMI-8226; HOP-92.
Holding throughout (test): NCI tumour cell line growth inhibition, 48 h

Each structure is given as a SMILES string.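 Cells were grown in 96-well plates and exposed to each compound for 48 hours at five concentrations; endpoints were interpolated linearly between bracketing concentrations, or set to the highest concentration if not reached. GI50 = concentration required for 50% inhibition of growth.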 Calls of active or inactive are those of the source. Rule as the data show it: active = GI50 up to about 1.1 µM and inactive = higher. Bounds are passed on as bounds.

In the case of `CNC(=O)c1nc[nH]c1/N=N/N(C)N`, the GI50 is > 100 µM (inactive) in the assay with Malme-3M; 80.9 µM (inactive) in the assay with SNB-75; > 100 µM (inactive) with EKVX; > 100 µM (inactive) in the assay on CAKI-1; over 100 µM in the assay with HCT-15; > 100 µM (inactive) in the assay with NCI-H226. For the same compound, the GI50 in the assay on NCI-H460 was 55 µM (inactive); in the assay with HT-29 it was > 100 µM (inactive); with RXF 393, > 100 µM (inactive); with M14, > 100 µM (inactive); in the assay with SK-OV-3, > 100 µM (inactive); in the assay with SK-MEL-5, 49.9 µM (inactive). In addition, the GI50 in the assay with SW-620, with SF-268, with MDA-MB-435, in the assay on OVCAR-5, in the assay on SF-295 and with DU-145 was > 100 µM (inactive) throughout. Besides, the GI50 in the assay with RPMI-8226 is > 100 µM (inactive).
On to `Cc1nc(-c2ccc(/N=C/c3ccc(N(CCOS(C)(=O)=O)CCOS(C)(=O)=O)cc3C)cc2)cs1`, for which the GI50 is 28.9 µM (inactive) in the assay with Malme-3M; 40.9 µM (inactive) with SNB-75; 77.6 µM with HCT-15; 5.71 µM (inactive) with NCI-H226; 9.46 µM (inactive) in the assay on NCI-H460; 30.3 µM (inactive) in the assay on HT-29. The GI50 was 25.1 µM (inactive) in the assay with RXF 393; 60 µM (inactive) in the assay with M14; 26.5 µM (inactive) in the assay on SK-OV-3; 11.4 µM (inactive) with SK-MEL-5; 67.9 µM (inactive) in the assay on SW-620; 5.14 µM (inactive) in the assay with SF-268. Also, the GI50 with MDA-MB-435 was 72.9 µM (inactive); with OVCAR-5, 30.8 µM (inactive); in the assay on SF-295, 37.7 µM (inactive); in the assay on DU-145, 11.5 µM (inactive); in the assay on RPMI-8226, 17.8 µM (inactive).
For the compound `CCC(CCN)(CCN)[N+](=O)[O-]`, the GI50 in the assay on Malme-3M was > 100 µM (inactive); with SNB-75, > 100 µM (inactive); in the assay on EKVX, > 100 µM (inactive); with CAKI-1 it was > 100 µM (inactive); with HCT-15 it was over 100 µM; with HOP-92, > 100 µM (inactive). The GI50 in the assay on NCI-H460, with HT-29, in the assay on RXF 393, with M14, in the assay on SK-OV-3 and in the assay with SK-MEL-5 was > 100 µM (inactive) throughout. Moreover, the GI50 in the assay on SW-620, in the assay with SF-268, in the assay on MDA-MB-435, in the assay with OVCAR-5, in the assay with SF-295 and in the assay on DU-145 was > 100 µM (inactive) throughout. In addition, the GI50 with RPMI-8226 was > 100 µM (inactive).
For the compound `O=C1/C(=C/c2ccc(Br)s2)NC(=S)N1CN1CCOCC1`, the GI50 was > 100 µM (inactive) with Malme-3M; 85.5 µM (inactive) with SNB-75; 8.38 µM (inactive) with EKVX; 25.2 µM (inactive) with CAKI-1; 30.2 µM with HCT-15; 34.5 µM (inactive) in the assay on NCI-H226. Besides, the GI50 in the assay with NCI-H460 was 49.8 µM (inactive); in the assay on HT-29, 35.2 µM (inactive); in the assay on RXF 393 it was 21.3 µM (inactive); in the assay on SK-MEL-5, 50 µM (inactive); with SW-620 it was 36.4 µM (inactive); in the assay with SF-268, 87.7 µM (inactive). The GI50 in the assay on MDA-MB-435 was 56.9 µM (inactive); with OVCAR-5, 61.1 µM (inactive); with SF-295, 95.5 µM (inactive); in the assay on DU-145, 53.2 µM (inactive); in the assay with RPMI-8226 it was 16.7 µM (inactive).
For the compound `COc1ccc(C)cc1NC(=S)N/N=C/c1ccc(SC)cc1`, the GI50 with Malme-3M was 96.4 µM (inactive); in the assay on SNB-75, > 100 µM (inactive); in the assay with CAKI-1, 47.6 µM (inactive); in the assay with HCT-15, 39.6 µM; in the assay with HOP-92 it was 93.5 µM (inactive); with HT-29, 34.1 µM (inactive). Further, the GI50 with RXF 393 was 58.5 µM (inactive); in the assay on M14 it was 25.5 µM (inactive); in the assay with SK-OV-3, 19.5 µM (inactive); with SK-MEL-5, 21.6 µM (inactive); in the assay on SW-620 it was 53.8 µM (inactive); in the assay on SF-268, > 100 µM (inactive). Besides, the GI50 in the assay with MDA-MB-435 is 38.4 µM (inactive); in the assay with OVCAR-5 it was 25.1 µM (inactive); in the assay on SF-295 it was 69.5 µM (inactive); with DU-145 it was 66.8 µM (inactive); in the assay on RPMI-8226 it was 27.9 µM (inactive).
Take `Cc1cc2nc(N3C(=O)/C(=C/c4ccccc4S)N=C3c3ccccc3)sc2cc1C`: the GI50 with SNB-75 was 32.6 µM (inactive); in the assay on EKVX, 27 µM (inactive); in the assay with CAKI-1 it was 59.7 µM (inactive); in the assay with HCT-15, 32.7 µM; in the assay on HOP-92 it was 22.4 µM (inactive); with NCI-H460, 26.5 µM (inactive). Also, the GI50 in the assay with HT-29 is 21 µM (inactive); in the assay with RXF 393, 29.3 µM (inactive); in the assay on M14, 34 µM (inactive); in the assay on SK-OV-3, 99.5 µM (inactive); in the assay with SK-MEL-5, 29 µM (inactive); in the assay on SW-620, 37.5 µM (inactive). Also, the GI50 in the assay on SF-268 is 40.8 µM (inactive); in the assay on MDA-MB-435, 22.1 µM (inactive); in the assay on OVCAR-5, 26.5 µM (inactive); in the assay on SF-295, 27.4 µM (inactive); in the assay on DU-145 it was 58.9 µM (inactive); with RPMI-8226, 19.2 µM (inactive).
For `CCOC(=O)[C@@]12C3C=CC(CC3)[C@]1(C(=O)c1ccccc1)C(=O)C(=O)N2c1ccccc1` (stereo not given in full), the GI50 with Malme-3M was > 100 µM (inactive); in the assay with CAKI-1, > 100 µM (inactive); in the assay with HCT-15, over 100 µM; in the assay with HOP-92 it was > 100 µM (inactive); in the assay with NCI-H460 it was > 100 µM (inactive); with HT-29 it was > 100 µM (inactive). Besides, the GI50 in the assay with RXF 393, in the assay on M14, in the assay on SK-OV-3, with SK-MEL-5, in the assay with SW-620 and with SF-268 was > 100 µM (inactive) in each case. Further, the GI50 in the assay with MDA-MB-435, with OVCAR-5, with SF-295, in the assay with DU-145 and in the assay with RPMI-8226 was > 100 µM (inactive) throughout.
Turning to `CCCCCCCCCCCCCCCC(=O)OC(COC(C)=O)CO[PH](=O)O` (stereo not given), the GI50 was 34.8 µM (inactive) in the assay with Malme-3M; 22.4 µM (inactive) in the assay with SNB-75; 49.3 µM (inactive) in the assay with EKVX; 41.9 µM (inactive) in the assay on CAKI-1; 24 µM in the assay with HCT-15; 12 µM (inactive) in the assay on HOP-92. For the same compound, the GI50 in the assay with NCI-H460 was 31.6 µM (inactive); in the assay with RXF 393, 36 µM (inactive); in the assay on M14 it was 14.7 µM (inactive); in the assay on SK-MEL-5 it was > 100 µM (inactive); in the assay on SW-620 it was 33.2 µM (inactive); in the assay with SF-268 it was 19.3 µM (inactive). Also, the GI50 with MDA-MB-435 is 29.5 µM (inactive); in the assay with OVCAR-5, 16.1 µM (inactive); in the assay with SF-295 it was 17.6 µM (inactive); with DU-145, 71.4 µM (inactive); in the assay on RPMI-8226 it was 78.2 µM (inactive).
On to `CCOC(=O)/C(=C\NC#N)c1nc2ccccc2[nH]1`, for which the GI50 with Malme-3M was > 100 µM (inactive); in the assay on SNB-75 it was > 100 µM (inactive); in the assay with EKVX, > 100 µM (inactive); in the assay with CAKI-1, > 100 µM (inactive); in the assay on HCT-15, 91 µM; with HOP-92 it was > 100 µM (inactive). Further, the GI50 in the assay with NCI-H460 is 60.5 µM (inactive); with HT-29, > 100 µM (inactive); in the assay with RXF 393, > 100 µM (inactive); with M14, > 100 µM (inactive); in the assay with SK-OV-3, > 100 µM (inactive); in the assay with SK-MEL-5 it was 65.2 µM (inactive). The GI50 in the assay on SW-620 is > 100 µM (inactive); in the assay with SF-268, 72.9 µM (inactive); in the assay with MDA-MB-435, > 100 µM (inactive); in the assay on OVCAR-5, > 100 µM (inactive); in the assay on SF-295 it was > 100 µM (inactive); in the assay on DU-145, > 100 µM (inactive). For the same compound, in the assay with RPMI-8226, the GI50 was 78.5 µM (inactive).
Take `O=c1[nH]c(=O)n(CCOc2ccc(Cl)cc2)cc1Nc1ccccc1`: the GI50 is 71 µM (inactive) with EKVX; > 100 µM (inactive) in the assay on CAKI-1; over 100 µM with HCT-15; > 100 µM (inactive) with HOP-92; > 100 µM (inactive) with NCI-H460; > 100 µM (inactive) in the assay on HT-29. The GI50 in the assay on RXF 393 was > 100 µM (inactive); with M14 it was > 100 µM (inactive); with SK-MEL-5, > 100 µM (inactive); in the assay with SW-620, > 100 µM (inactive); in the assay on SF-268, 39.9 µM (inactive); in the assay with MDA-MB-435, > 100 µM (inactive). Besides, the GI50 was > 100 µM (inactive) in the assay on OVCAR-5, 12.4 µM (inactive) in the assay on SF-295, > 100 µM (inactive) in the assay on DU-145 and > 100 µM (inactive) in the assay with RPMI-8226.
For `Cc1cccc2c1C(=O)[C@@](C)([C@]1(C)Nc3cccc(C)c3C1=O)N2`, the GI50 in the assay on Malme-3M is > 100 µM (inactive); with SNB-75, 30.4 µM (inactive); in the assay with EKVX, > 100 µM (inactive); with CAKI-1, > 100 µM (inactive); in the assay on HCT-15 it was over 100 µM; with NCI-H226, > 100 µM (inactive). The GI50 with NCI-H460 is > 100 µM (inactive); in the assay with HT-29 it was > 100 µM (inactive); with RXF 393, > 100 µM (inactive); with M14, > 100 µM (inactive); in the assay on SK-OV-3 it was > 100 µM (inactive); with SK-MEL-5, 96.6 µM (inactive). Also, the GI50 is > 100 µM (inactive) in the assay on SW-620; > 100 µM (inactive) with SF-268; 31.1 µM (inactive) in the assay on MDA-MB-435; > 100 µM (inactive) in the assay with OVCAR-5; > 100 µM (inactive) in the assay with SF-295; > 100 µM (inactive) in the assay with DU-145. Also, in the assay on RPMI-8226, the GI50 is 11 µM (inactive).
